Values quoted from earlier work as cited in patent US20130140210A1, “LOW-DOSED SOLID ORAL DOSAGE FORMS FOR HRT” (BAYER INTELLECTUAL PROPERTY GMBH, priority 2010, published 2013).

System: moderate or severe hot flushes in menopausal women
Conditions: 2 mg E2

In the case of `C[C@]12CC[C@@H]3c4ccc(O)cc4CC[C@H]3[C@@H]1CC[C@@H]2O` [E2, estradiol], the estrogen-related adverse events is given as “increased estrogen-related adverse events”.
